Laboratory results from ChEMBL document CHEMBL3621105, “Synthesis and evaluation of a bis-3-chloropiperidine derivative incorporating an anthraquinone pharmacophore” (Bioorg Med Chem Lett, 2015).
The source made the active and inactive calls. No cut-off for these calls is given here.

Legend:
Escherichia coli [1] = experiment: Induction of Escherichia coli supercoiled pBR322 DNA cleavage assessed as formation of linear form of DNA at 0.5 to 50 uM after 24 hrs at 25 degC by agarose gel electrophoresis
[2] = Induction of alkylation of 5'-FAM-labelled scrambled duplex oligonucleotide DNA (unknown origin) at guanine residues G1 to G4 at 5 to 50 uM after 24 hrs by sequencing gel analysis
Escherichia coli [3] = experiment: Induction of Escherichia coli supercoiled pBR322 DNA cleavage assessed as formation of open circular form of DNA after 24 hrs at 25 degC by agarose gel electrophoresis
[4] = Induction of alkylation of 5'-FAM-labelled scrambled duplex oligonucleotide DNA (unknown origin) at guanine residues G1 to G4 after 24 hrs by sequencing gel analysis
Escherichia coli [5] = experiment: Induction of Escherichia coli supercoiled pBR322 DNA cleavage at 50 uM after 24 hrs at 25 degC by agarose gel electrophoresis
[6] = Induction of alkylation of 5'-FAM-labelled scrambled duplex oligonucleotide DNA (unknown origin) at guanine residues G1 to G4 at 50 uM after 24 hrs by sequencing gel analysis

With CC1(C)CC(Cl)CN(CCCC[C@@H](C(=O)OCc2ccc3c(c2)C(=O)c2ccccc2C3=O)N2CC(Cl)CC(C)(C)C2)C1 (some centres not stated) the Activity (Escherichia coli [1]) was “inactive”, the Activity [2] was “Active” and the Activity (Escherichia coli [3]) was “Dose-dependent effect”.

For CC1(C)CC(Cl)CN(CCCC[C@@H](C(=O)Oc2cccc3ccccc23)N2CC(Cl)CC(C)(C)C2)C1 (some centres not stated), the Activity [4] was “Dose-dependent effect”.

For COc1ccc(OC(=O)[C@H](CCCCN2CC(Cl)CC(C)(C)C2)N2CC(Cl)CC(C)(C)C2)c2ccccc12 (some centres not stated), the Activity [4] was “Dose-dependent effect”.

In the case of O=C(O)CCCc1ccc(N(CCCl)CCCl)cc1, the Activity (Escherichia coli [5]) is reported as “inactive” and the Activity [6] is reported as “inactive”.
